Measured values published in paper PMC10451668, “Natural Acetogenins, Chatenaytrienins-1, -2, -3 and -4, Mitochondrial Potential Uncouplers and Autophagy Inducers—Promising Anticancer Agents” (Antioxidants, 2023).

Tests used:
Assay type in all cases: cell-based, human
[1] = system: U937; assay: Cytotoxicity assay (7-AAD viability, flow cytometry); settings: Homo sapiens, U-937, ± standard error of the mean, 95% CI in parenthesis
Source text: (§1) Cells, including Jurkat E6.1 (human leukemic T cell lymphoblasts, catalogue no. 88042803), K562 (human chronic myelogenous leukemia cells, catalogue no. 89121407), U937 (human histiocytic lymphoma cells, catalogue no. 85011440), HL60 (human promyelocytic leukemia cells, catalog no. 98070106), HEK293 (human embryonic kidney cells with adenovirus, catalog no. 85120602), and human lung fibroblasts Ce (catalogue no. 90011883), were purchased from the European Collection of Authenticated Cell Cultures (UK Health Security Agency) and cultured according to standard protocols using sterile techniques. […] Cells were maintained in RPMI 1640 (Jurkat, K562, U937, and HL60) and DME M (fibroblast and HEK293) (Gibco) supplemented with […] glutamine, 10% FBS (Sigma), and 100 units/mL penicillin-streptomycin (Sigma). All types of cells were grown under an atmosphere of 5% CO2 at 37 °C. The cells were subcultured at 2–3-day intervals. Cells were then seeded in 24-well plates at 5 × 10^4 cells per well and incubated overnight. Jurkat, K562, U937, HL60, HEK293, and fibroblast cells were subcultured at 2-day intervals with a seeding density of 1 × 10^5 cells per well in 24-well plates in RPMI with 10% FBS.
(§2) Viability (live/dead) assessment was performed by staining cells with 7-AAD (7-aminoactinomycin D; Biolegend). After treatment, cells were harvested, washed 1–2 times with phosphate-buffered saline (PBS), and centrifuged at 400× g for 5 min. Cell pellets were resuspended in 200 µL of flow cytometry staining buffer (PBS without Ca^2+ and Mg^2+, 2.5% FBS) and stained with […] of 7-AAD staining solution for 15 min at room temperature in the dark. Samples were assessed using the NovoCyte Penteon Flow Cytometer System (Agilent, 5301 Stevens Creek Blvd., Santa Clara, CA, USA). Detection of 7-AAD emission was collected through a 675/30 nm filter in the FL4 channel.

[2] = as above; settings: human; Hek293, conditionally normal line; ± standard error of the mean, 95% CI in parenthesis
Source text: as §1, §2

[3] = system: Jurkat; assay: as above; settings: Homo sapiens, ± standard error of the mean, 95% CI in parenthesis
Source text: as §1, §2

[4] = system: K562; assay: as above; settings: Homo sapiens, ± standard error of the mean, 95% CI in parenthesis
Source text: as §1, §2

[5] = system: HL60; assay: as above; settings: Homo sapiens, HL-60, ± standard error of the mean, 95% CI in parenthesis
Source text: as §1, §2

[6] = system: Jurkat cells; assay: Oxidative stress and early apoptosis (MitoSOX Red and annexin V, MitoStress Kit); settings: compound at CC50, 4 h
Source text: Changes in the mitochondrial membrane potential (ΔΨ) in Jurkat cells induced by treatment with the synthesized compounds were detected using MitoSOX Red, a positively charged probe that accumulates rapidly in mitochondria and as such can be used to detect superoxide/ROS production within mitochondria using fluorometry, microscopy, or flow cytometry. Live cells induced a low level of MitoSOX Red fluorescence, while cells with scattered mitochondrial membrane potential caused much higher MitoSOX Red fluorescence. Annexin V is a dye commonly used to detect early signs of apoptosis. […] Thus, using two different dyes, MitoSOX Red and annexin V (CF488A), in the FlowCellect™ MitoStress Kit (FCCH100109), we analyzed the mitochondrial membrane potential dissipation and associated apoptosis in Jurkat cells in response to the synthesized chatenaytrienins.
Therefore, simultaneous detection of mitochondrial superoxide generation (detected by MitoSOX Red membrane-penetrating dye) and expression of phosphatidylserine on the cell surface of apoptotic cells (assessed by binding of annexin V) in the same cell sample provides an accurate evaluation of the ability of the test compound to initiate oxidative stress in cell culture and induce apoptosis.

CCCCCCCCCC/C=C\CC/C=C\CC/C=C\CCCCCCCCCCC1=C[C@H](C)OC1=O [compound 1, chatenaytrienin-1]
CC50 [1]: 90 ± 20 nM | CC50 [2]: 530 ± 20 nM | CC50 [3]: 90 ± 20 nM | CC50 [4]: 100 ± 30 nM | CC50 [5]: 150 ± 10 nM | cells demonstrating oxidative stress along with the marker of early apoptosis, annexin ([6]; MitoSOX Red and annexin V): 10.53% | cells in early apoptosis ([6]; annexin V): 75%
